From patent US20220062291A1, “COMPOSITIONS AND METHODS OF TREATING CANCERS BY ADMINISTERING A PHENOTHIAZINE-RELATED DRUG THAT ACTIVATES PROTEIN PHOSPHATASE 2A (PP2A) WITH REDUCED INHIBITORY ACTIVITY TARGETED TO THE DOPAMINE D2 RECEPTOR AND ACCOMPANYING TOXICITY” (DANA-FARBER CANCER INSTITUTE, INC., priority 2018, published 2022)

How the values were obtained:
[1] = female, C57BL/6, mouse, in vivo, po, 1 week
Experimental: (§2) PPZ and iPAP1 were each given per orally to eight-week-old female C57BL/6 mice every 24 hours (n=3 for each cohort). The mice were monitored for four recognized types of dopamine receptor D2 mediated toxicity, namely: i) general activity; ii) reactivity to touch; iii) fear/startle to sound; and iv) tone of abdominal muscle. Behavioral monitoring was done at 15 minutes, 1 hour, 4 hours and 24 hours after each treatment. PPZ and iPAP1 were each administered at 0, 2.5, 5, 10, 20 and 40 mg/kg body weight/dose, and iPAP1 was also administered at 80 mg/kg body weight/dose.

in vivo = settings: female, mouse, po
Experimental: as §2

PP2A subunits [2] = assay: Co-immunoprecipitation of PP2A subunits (holoenzyme assembly); set-up: species or system human; settings: KOPT-K1 cells, 10 μM, 24 hours
Description: (§1) The biochemical activity of iPAP1 was further characterized by addressing whether it acts exclusively on the three identified subunits to mediate the assembly of PP2A, or whether other proteins expressed by T-ALL cells are also required. Using baculovirus vectors, each subunit of PP2A was first expressed with a C-terminal tag in Hi5 insect cells, and then purified the subunit proteins using columns with antibodies against the tags bound to agarose beads (see, Example 5, FIG. 13-FIG. 14). […] PP2A is a unique enzyme consisting of three subunits and it needs to be properly assembled into a holoenzyme before it mediates phosphatase activity. […] The protein lysates were then immunoprecipitated with anti-PPP2CA antibody or normal IgG as a control, and the precipitates were immunoblotted with antibodies specifically detecting each of the PP2A subunits. […] Nuclear and cytoplasmic fractions were separated using NE-PER™ Nuclear and Cytoplasmic Extraction Kit (Thermo Fisher Scientific), and each of the subunits of PP2A was analyzed by western blot. Histone H3 and α tubulin expression levels were used as loading controls for nuclear and cytoplasmic fractions, respectively. […] Lysates were immunoprecipitated using an anti-PPP2CA antibody, and then blotted with antibodies specific for each PP2A subunit. […] The results of a co-immunoprecipitation assay using an anti-PPP2CA antibody for immunoprecipitation in KOPT-K1 cells treated with SMAP at 10 μM or control DMSO for 24 hours before they were lysed for protein extraction are illustrated in FIG. 9B. Lysates were immunoprecipitated using an anti-PPP2CA antibody, and then blotted with antibodies specific for each PP2A subunit.

[3] = system: 274 cancer cell lines from 39 distinct types of human cancers; assay: PRISM analysis of cell viability; format: cell-based; settings: 5 μM, 5 days
Experimental: Many other human cell lines from hematologic malignancies and solid tumors were as sensitive as the most sensitive T-ALL cell lines to treatment with iPAP1. Cell lines with a relative viability below the dashed line at 0.5 have an IC50 value for iPAP1 below 5 μM.

PP2A = molecular target: T1, PP2A (Homo sapiens, UniProt P30153+P67775+Q16537); assay: PP2A phosphatase activity in treated KOPT-K1 cells; format: cell-based
T1 construct: are endogenously expressed by KOPTK1 cells; endogenous in cells; host or cells: KOPT-K1 T-ALL cells / lysates
T1 sequence (P30153 2-589): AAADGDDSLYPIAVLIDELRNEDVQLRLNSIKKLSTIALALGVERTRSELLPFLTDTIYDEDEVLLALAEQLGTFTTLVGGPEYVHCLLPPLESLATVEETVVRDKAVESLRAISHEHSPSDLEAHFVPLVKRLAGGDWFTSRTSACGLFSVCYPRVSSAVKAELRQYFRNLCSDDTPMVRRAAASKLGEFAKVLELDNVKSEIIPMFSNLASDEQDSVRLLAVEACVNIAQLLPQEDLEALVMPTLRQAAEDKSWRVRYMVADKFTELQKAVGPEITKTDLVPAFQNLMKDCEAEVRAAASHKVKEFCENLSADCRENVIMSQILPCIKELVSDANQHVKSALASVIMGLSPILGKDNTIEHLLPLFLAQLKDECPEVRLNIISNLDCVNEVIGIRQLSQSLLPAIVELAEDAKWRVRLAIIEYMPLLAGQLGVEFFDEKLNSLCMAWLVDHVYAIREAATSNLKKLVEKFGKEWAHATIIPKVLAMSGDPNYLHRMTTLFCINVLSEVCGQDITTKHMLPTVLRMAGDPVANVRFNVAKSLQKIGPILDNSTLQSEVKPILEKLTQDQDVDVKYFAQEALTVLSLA
T1 sequence (P67775 whole entry): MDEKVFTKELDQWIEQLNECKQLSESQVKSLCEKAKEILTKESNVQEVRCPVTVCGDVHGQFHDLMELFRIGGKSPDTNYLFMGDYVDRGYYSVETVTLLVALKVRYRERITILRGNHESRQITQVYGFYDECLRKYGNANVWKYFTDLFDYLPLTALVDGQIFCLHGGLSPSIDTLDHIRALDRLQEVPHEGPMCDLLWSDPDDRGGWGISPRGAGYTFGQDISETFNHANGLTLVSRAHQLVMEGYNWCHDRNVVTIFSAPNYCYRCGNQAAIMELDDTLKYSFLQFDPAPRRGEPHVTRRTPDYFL
T1 sequence (Q16537 2-467): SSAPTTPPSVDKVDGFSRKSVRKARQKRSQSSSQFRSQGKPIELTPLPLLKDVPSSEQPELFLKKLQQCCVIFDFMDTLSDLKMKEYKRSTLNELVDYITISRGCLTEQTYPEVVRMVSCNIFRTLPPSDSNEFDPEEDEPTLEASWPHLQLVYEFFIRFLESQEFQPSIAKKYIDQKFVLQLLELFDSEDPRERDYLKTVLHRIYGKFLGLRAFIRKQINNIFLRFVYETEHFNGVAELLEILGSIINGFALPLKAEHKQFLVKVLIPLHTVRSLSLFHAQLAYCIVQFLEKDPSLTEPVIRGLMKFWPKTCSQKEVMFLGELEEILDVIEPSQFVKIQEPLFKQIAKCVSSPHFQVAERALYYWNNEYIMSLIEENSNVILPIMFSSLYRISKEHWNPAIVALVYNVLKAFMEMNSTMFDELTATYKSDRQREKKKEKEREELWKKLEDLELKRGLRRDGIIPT
Experimental: Data are presented as means±s.d. (n=3, biological replicates). KO; knock out. **P<0.01, ***P<0.001 by student's t-test.
For IC50 calculation, KOPT-K1 cells were treated with each of the compounds at various concentrations for 72 hours, followed by the determination of viable cell numbers with PrestoBlue® cell viability reagent. For the PP2A phosphatase activity assay, KOPT-K1 cells were treated with each of the compounds at 10 μM for 3 hours before phosphatase activity was measured. Dopamine D2 receptor activity was monitored in HEK293T cells coexpressing the dopamine D2 receptor, modified G protein and SRE luciferase reporter. Cells were treated with each of the compound at 10 μM for 3 hours, then lysed for the luciferase reporter assay.
For IC50 calculations, KOPT-K1 cells were treated with each of the compound at various concentrations for 72 hours, then their viability was examined by PrestoBlue® Cell Viability Reagent (Thermo Fisher Scientific). […] DRD2 activity was monitored in HEK293T cells expressing DRD2, modified G protein and SRE luciferase reporter. Cells were treated with each of the compounds at 10 μM for three hours, then lysed for luciferase reporter assay. […] The biochemical assays were performed as indicated in Examples 7 and 8.

PP2A subunits [4] = molecular target: T2, PP2A subunits (Homo sapiens, UniProt P30153+P67775+Q16537); assay: Co-immunoprecipitation of PP2A subunits (holoenzyme assembly); settings: purified subunits from insect cells
T2 construct: are endogenously expressed by KOPTK1 cells; endogenous in cells; host or cells: KOPT-K1 T-ALL cells / lysates
T2 sequence (P30153 2-589): as the sequence (P30153 2-589) above
T2 sequence (P67775 whole entry): as the sequence (P67775 whole entry) above
T2 sequence (Q16537 2-467): as the sequence (Q16537 2-467) above
Description: as §1

Row | Structure (SMILES) | dose showing neurological toxicity [1] | MTD at 1 week (in vivo) | PP2A subunits co-immunoprecipitated with anti-PPP2CA antibody (PP2A subunits [2]) | cell killing compared with PPZ in every cell line [3] | more active than PPZ for stimulating PP2A phosphatase activity (PP2A; KOPT-K1, 10 μM for three hours) | phosphatase activity of PP2A relative to basal level (PP2A; WT KOPT-K1 cells, 1 μM) | assembly of purified PPP2R1A, PPP2CA and PPP2R5E (PP2A subunits [4])
1 | OCCN1CCN(CCCN2c3ccccc3Sc3ccc(Cl)cc32)CC1 [PPZ, perphenazine, reference compound] | ≥ 5 mg/kg body weight/dose | 2.5 mg/kg | PPP2CA uniquely binds to PPP2R1A and PPP2R5E |  |  |  | 
2 | COc1ccc(C(=O)N2c3ccccc3Sc3ccc(Cl)cc32)cc1 [iPAP1] |  |  |  | more active in cell killing than was PPZ | 10 times | up to twice its basal level | assembled into an active enzyme complex
